Series [1] concerns the target T1, GSK3β (Homo sapiens, UniProt P49841).
T1 construct: purchased Promega V1991
Briefly: GSK3β inhibition, luminescence Kinase-Glo assay. In kind it is biochemical. The note with it: for Ki: calculated from IC50 by Cheng-Prusoff equation, Km ATP 2.345 µM, read-out: Ki (apparent equilibrium dissociation constant); for IC50: four concentrations 0.1, 1, 10, 30 μM, ATP 1 μM, 1 h.
Description: GSK3β inhibitory activity was evaluated using the method developed by Baki[66], with modifications. Compounds were dissolved in assay buffer, containing 40 mM Tris (pH 7.5), 20 mM MgCl2, 0.1 mg/ml BSA (bovine serum albumin) and 50 μM dithiothreitol (DTT) at the desired concentrations. Firstly, 10 μl of enzyme (10 ng) and 10 μl of each compound were mixed for 30 min. Then, 20 μl of a mixture of ATP (1 μM) and GSK3β peptidic substrate were added to each well. The mixture was incubated for 60 min at 30 °C. Thereafter, the remaining ATP concentration was measured with the Kinase-Glo system following instructions from the supplier. Luminescence was measured in an Orion II microplate luminometer (Berthold, Germany) as relative light units (RLU). […] IC50 values were calculated by non-linear regression analysis of individual concentration-response curves using GraphPad Prism 5.0 software (San Diego, CA, USA).
The ability of the compounds to inhibit GSK3β was evaluated using the method developed by Baki^9 with some modifications. The tested compounds were dissolved in assay buffer, containing 40 mM Tris (pH 7.5), 20 mM MgCl2, 0.1 mg/ml BSA (bovine serum albumin) and 50 µM dithiothreitol (DTT), to achieve final reaction concentrations of 0.1, 1, 10 and 30 µM. […] The GSK3β inhibition assay was performed in white 96-well plates, in duplicates. Firstly, 10 µl of enzyme (10 ng) were added to each well, followed by 10 µl of the compounds at the desired concentration. After 30 minutes, 20 µl of a mixture of ATP and GSK3β peptidic substrate were added to each well, achieving a final concentration of 1 µM of ATP and 25 of µM peptidic substrate. The mixture was incubated at 30 °C for 60 minutes. Once the reaction was finished, the remaining ATP concentration was measured by adding 40 µl/well of Kinase-Glo reagent. The luminescence was measured in an Orion II microplate luminometer (Berthold, Germany) as relative light units (RLU). The luminescence recorded is proportional to the amount of ATP present in each well.
Apparent Ki for each compound were calculated from GSK3β Km value for ATP, applying the Cheng-Prusoff equation^10,11 in its simplified form: Ki = IC50/(1+([S]/Km)), in which S refers to the ATP concentration and Km is the Michaelis constant of the substrate for GSK3β.

Series [2] concerns primary rat glial cells. Briefly: Nitrite production in LPS-stimulated primary glial cultures (Griess). The note with it: Glial cell, 24 h pre-incubation, 18 h co-incubation with LPS 1 μg/mL, read-out: IC50 nitrite reduction. Type of series: cell-based. The source says: (§1) Therefore, we envisaged the study of compounds 5a–t as potential anti-inflammatory agents. We used primary rat glial cells treated with lipopolysaccharide (LPS) to induce the production of nitrites and ROS as a model of glial activation. Nitrite production is directly proportional to the expression of the iNOS, that is over-expressed when LPS activates glial cells. ROS production is proportional to NOX activation after stimulation with LPS. Results are summarized in Table 2 as IC50s of nitrite production reduction and ROS production reduction. We have included sulforaphane as control in all experiments (see the Supporting Information).
Glial cells were pre-incubated with increasing concentrations of compounds for 24 hours. Then, treatments were removed and cells were incubated with LPS (1 μg/mL) alone or in presence of each compound at the desired concentration. Nitrite production was assessed 18 hours later by modified Griess assay. Briefly, samples (150 μl) were mixed with dapsone (75 μl) and NEDA (75 μl), and the mixture was incubated at room temperature for 5 min. Light absorption was measured at 550 nm in a microplate reader (Labtech, Offenburg, Germany). All data were normalized to basal nitrite production, considering this value as 100% of nitrite production. IC50 values were calculated from dose-response curves represented as percentage of nitrite production reduction induced by the different concentrations of each compound.
(§2) Mixed glial cultures were obtained from cerebral cortex of 2-5 day-old Sprague-Dawley rats. After removal of blood vessels and meninges, the forebrains were dissociated in DMEM/F12 medium. After mechanical dissociation, cells were plated (3x10^5 cells/ml) in DMEM/F12 medium with 20% fetal bovine serum (FBS) and 1 % penicillin/streptomycin (10,000 units), at 37 °C and in a 5 % CO2-supplemented air atmosphere. After 5 days, medium was substituted by DMEM/F12 medium with 10 % FBS. Cells were cultured for 7-10 days before treatment.
Primary rat glial cells were treated with compounds 5a-t at increasing concentrations (3, 10, 30 and 60 µM) during 24 h. Thereafter, treatments were removed and glial cells were co-incubated with increasing concentrations of each compound and LPS (1 µg/mL) for 18 h more. At the end of this period, supernatant was collected and the presence of nitrites was analyzed by the Griess method with modifications.^20 Each plate included non-treated cells as basal nitrite production, sulforaphane (SFN, 10 µM) as positive control. Briefly, samples (150 µl) were mixed with DAPSONE (75 µl) and NEDA (75 µl), and the mixture was incubated at room temperature for 5 min. Light absorption was measured at 550 nm in a microplate reader (Labtech, Offenburg, Germany). All data were normalized to basal nitrite production, considering this value as 100% of nitrite production. EC50 values were calculated from dose-response curves represented as percentage of nitrite production reduction induced by the different concentrations of each compound. Concentration response curves were fitted by non-linear regression analysis of individual concentration-response curves using GraphPad Prism software (San Diego, CA, USA). EC50 values are expressed as mean ± SEM of four different experiments in triplicate.

Series [3] concerns primary rat glial cells. Briefly: ROS production in LPS-stimulated primary glial cultures (H2DCFDA). The note with it: Glial cell, 24 h pre-incubation, 18 h co-incubation with LPS, 3 h with fluorescent dye, read-out: IC50 ROS reduction. Type of series: cell-based.
Excerpt: as §1
Besides the increase in nitrite production, it is well known that LPS stimulation of microglia also induces the activation of NOX, which induces superoxide free radical production. In fact, this mechanism is synergistic with the expression of iNOS and the production of nitrites. In this respect, there is a body of evidence showing that NOX activation is a major contributor to ROS oxidative stress and neuronal death in AD[57][58]. […] In general, potency to reduce ROS production increased from ortho to para and meta as observed above.
(§3) Primary glial cells were cultured in bottom transparent 96-well black plates following standard protocol. Cells were pre-incubated with the corresponding compound at the selected concentrations, for 24 hours, and therafter, co-incubated with the corresponding compound and LPS (1 μM) during 18 h more. Then, treatments were removed and cells were loaded with the fluorescent probe 2′,7′-dichlorodihydrofluorescein diacetate (H2DCFDA) (10 μM) for 45 minutes in serum free glial culture medium. All experiments included cells treated with culture medium alone (basal). Cells were washed twice with culture medium and fluorescence intensity was recorded in a Fluostar Optima multiwall pate reader (BMG Labtech, Offenburg, Germany) at 485/520 nm as excitation and emission wavelengths respectively, each hour, during 3 hours period. Data were normalized with respect to basal conditions that were considered as 100%.
as §3, with “µM)” for “μM)”, “2',7'-dichlorodihydrofluorescein” for “2′,7′-dichlorodihydrofluorescein”
as §2

Series [4] deals with HepG2 cells. Briefly: Hepatotoxicity in HepG2 cell line (MTT). The note with it: 24 h.
Description: Thus, it is relevant to study the potential neurotoxicity and hepatotoxicity of the novel dual GSK3β inhibitors-Nrf2 inducers 5a–t.
(§4) Viability was measured as MTT reduction in presence of increasing concentrations of derivatives. Values are expressed as LD50 calculated from dose-response curves of four different concentrations.
HepG2 cells were cultured according to supplier indications in EMEM supplemented with 10 % heat-inactivated FBS, 100 µg/mL streptomycin and 100 units/mL penicillin. Cells were maintained at 37 °C in humidified atmosphere of 95 % air and 5 % CO2. For experimental procedures, cells were cultured in 96-well plates at density of 1x10^5 cells/well. Treatments were performed in 1% FBS medium unless other concentration was specified. Cells were used from 4 up to 13 passages.
(§5) Cells were cultured in 48-well (SH-SY5Y, 1x10^5 cells per well) or 96-well plates (HepG2, 1x10^5 cells per well) for 24 h. […] Control cells were incubated with the same concentration of DMSO (0.1 % final concentration) without any drug.
In series [5] the test system is SH-SY5Y cells. Briefly: Cytotoxicity in SH-SY5Y neuroblastoma cell line (MTT). The note with it: 24 h.
Description: as §4, §5

Where only a bound is given, the exact number is not on record here.

T1 sequence (P49841 whole entry): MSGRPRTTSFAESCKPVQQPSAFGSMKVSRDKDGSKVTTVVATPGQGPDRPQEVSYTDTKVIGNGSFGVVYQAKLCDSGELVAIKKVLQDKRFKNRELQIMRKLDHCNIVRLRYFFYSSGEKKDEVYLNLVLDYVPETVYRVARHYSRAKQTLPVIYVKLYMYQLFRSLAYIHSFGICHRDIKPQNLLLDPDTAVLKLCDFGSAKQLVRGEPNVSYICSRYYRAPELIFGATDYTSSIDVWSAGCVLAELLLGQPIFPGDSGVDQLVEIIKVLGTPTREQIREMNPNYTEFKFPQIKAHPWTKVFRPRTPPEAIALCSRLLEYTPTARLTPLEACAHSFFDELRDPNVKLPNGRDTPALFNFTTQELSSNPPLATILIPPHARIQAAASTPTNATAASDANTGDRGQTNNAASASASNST

Take `Cc1[nH]nc2c1C(c1cccc([N+](=O)[O-])c1)C(C#N)=C(N)O2` (stereo not shown) [Compound 5o, 6-Amino-3-methyl-4-(3-nitrophenyl)-2,4-dihydropyrano[2,3-c]pyrazole-5-carbonitrile]: the Ki in series [1] was 5.04 µM. Further, the values for the IC50 in series [1], in series [2] and in series [3] were 7.2 ± 1.6 µM, 40.8 ± 2.23 µM and 30.8 ± 4.99 µM, respectively. The “HepG2 LD50” value in series [4] is recorded as above 100 µM. Besides, the “SH-SY5Y LD50” value in series [5] was above 100 µM.
Regarding `Cc1[nH]nc2c1C(c1ccc([N+](=O)[O-])cc1)C(C#N)=C(N)O2` (stereo not shown) [Compound 5p, 6-Amino-3-methyl-4-(4-nitrophenyl)-2,4-dihydropyrano[2,3-c]pyrazole-5-carbonitrile], the Ki in series [1] is 11.4 µM. In addition, the results for the IC50 in series [1], in series [2] and in series [3] were 16.3 ± 2.8 µM, 26.7 ± 4.86 µM and above 60 µM, respectively. Moreover, the “HepG2 LD50” value in series [4] was above 100 µM. In series [5], the “SH-SY5Y LD50” value is reported as above 100 µM.
Regarding `Cc1n[nH]c2c1C(c1ccco1)C(C#N)=C(N)O2` (stereo not shown) [Compound 5q, 6-Amino-4-(furan-2-yl)-3-methyl-2,4-dihydropyrano[2,3-c]pyrazole-5-carbonitrile], in series [1], the Ki was 10.4 µM. The IC50 in series [1] stood at 14.8 ± 4.8 µM; in series [2], 17.5 ± 2.45 µM; in series [3], 22.5 ± 7.78 µM. Besides, the “HepG2 LD50” value in series [4] is reported as above 100 µM. For the same compound, the “SH-SY5Y LD50” value in series [5] is above 100 µM.
On to `Cc1n[nH]c2c1C(c1cccs1)C(C#N)=C(N)O2` (stereo not shown) [Compound 5r, 6-Amino-3-methyl-4-(thiophen-2-yl)-2,4-dihydropyrano[2,3-c]pyrazole-5-carbonitrile], for which the IC50 in series [1] is above 30 µM; in series [2] it was above 60 µM; in series [3] it was above 60 µM. Also, the “HepG2 LD50” value in series [4] is on record as above 100 µM. Moreover, in series [5], the “SH-SY5Y LD50” value is listed as above 100 µM.
`Cc1[nH]nc2c1C(c1cccnc1)C(C#N)=C(N)O2` (stereo not shown) [Compound 5s, 6-Amino-3-methyl-4-(pyridin-3-yl)-2,4-dihydropyrano[2,3-c]pyrazole-5-carbonitrile]: the figures for the IC50 in series [1], in series [2] and in series [3] were above 30 µM, 7.23 ± 1.1 µM and 15.2 ± 3.73 µM, respectively. Further, the “HepG2 LD50” value in series [4] is recorded as above 100 µM. Besides, the “SH-SY5Y LD50” value in series [5] is listed as above 100 µM.

The values are drawn from article PMC5374710, “Discovery of the first dual GSK3β inhibitor/Nrf2 inducer. A new multitarget therapeutic strategy for Alzheimer’s disease” (Scientific Reports, 2017).
